Target: 5-lipoxygenase (Cavia porcellus)
Assay: In vitro 5-lipoxygenase inhibitory activity against A-23187-stimulated conversion of [14C]AA to LTB4 in guinea pig peritoneal polymorphonuclear leukocytes

Compound: NC(=O)N(O)C[C@H]1COc2ccc(Oc3ccc(F)cc3)cc2O1 [(2S)-2-[[N-(aminocarbonyl)-N-hydroxyamino]methyl]-7-(4-fluorophenoxy)-1,4-benzodioxan]
- IC50: 97 nM

— BindingDB's records for doi:10.1021/jm00001a012 (Ciba-Geigy, 1995)
